Test results reported in patent publication US8901118B2, “Compounds and methods for kinase modulation, and indications therefor” (Plexxikon Inc., priority 2010, dated 2014).
pIC50: −log10 of the molar value.

Assays:
[1] = Relative solubility by turbidity in aqueous buffers (pH 1.5, 4.5, 6.8, 7.4); format: physicochemical; settings: for turbidity threshold (L, M, H) 1.4: pH 1.5 (SGF); for turbidity threshold (L, M, H) 4.5: pH 4.5 (SIF); for turbidity threshold (L, M, H) 6.8: pH 6.8 (SIF); for turbidity threshold (L, M, H) 7.4: pH 7.4 (HEPES)
Method in brief: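 Reported value: concentration at which optical density at 490, 535 and 650 nm passes 0.01, taken as the mean of the three wavelengths. Buffers were 0.5M NaCl pH 1.5, 0.05M NaH2PO4 pH 4.5 or 6.8, and 10 mM HEPES/150 mM NaCl pH 7.4, each receiving serial 1:1 DMSO dilutions of a 25 mM stock.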

MV-4-11 cells = assay: MV-4-11 (leukemia) cell proliferation assay (ATPlite); format: cell-based; settings: Homo sapiens, MV4-11, read-out: Inhibition of Cell Proliferation IC50, MV-4-11
Procedure: Compounds are assessed in a variety of cell based assays. For example BaF3 cells engineered with any of BCR-FMS, BCR-KIT, BCR-FLT3, BCR-NTRK1, BCR-NTRK2, and BCR-NTRK3, are used in cell proliferation assays to assess inhibitory activity of Fms, Kit, Flt-3, TrkA, TrkB, and TrkC, respectively. An MV-4-11 (leukemia) cell proliferation assay is used to assess inhibitory activity in Flt-3, and SKNSH (human neuroblastoma) cell proliferation assay is used to assess efficacy of Fms/Trk inhibitors. Additional cells may be assayed similarly to assess the efficacy of Fms/Trk inhibitors, such as MiaPaCa (human pancreatic cancer) and Capan-1 (human pancreatic carcinoma) cells. Reagent and assay conditions are as follows: • BaF3 cells: • Maintained in RPMI containing 10% FBS, 1% PenStrep, 1% NEAA, and 1% L-Glutamine, supplemented with 1 mg/mL G418 and 5% WEHI-CM (or recombinant murine IL-3). • Confluent cells are split 1:50 to 1:100 every 3-4 days. • MV-4-11 cells: • Maintained in Iscove's Modified Dulbecco's Medium containing 10% FBS. • Confluent cells are split 1:4 every 3-4 days. • SKNSH cells: RPMI containing 10% FBS. On day 1, cells are counted, then centrifuged in a conical tube for 5 minutes at 1000 rpm. The supernatant is removed and cells are re-suspended as follows: • BaF3: resuspend in growth media +1 mg/mL G418 (without WEHFIL-3) to 2×10^5 cells/mL. • MV-4-11: resuspend in growth media to 5×10^5 cells/mL. • SKNSH: resuspend in growth media to 2×10^4 cells/mL. The cells are plated (50 μL, 150 μL for SKNSH cells) in each well of a 96-well dish (Corning 3610) and incubated at 37° C. in 5% CO2 overnight, cells plated to a final concentration of cells as follows: • BaF3: 10,000 cells per well. • MV-4-11: 25,000 cells per well. • SKNSH: 3,000 cells per well. On day 2, compound at a maximum concentration of 5 mM is serially diluted 1:3 for a total of 8 point titration with DMSO as a control. A 1 μL aliquot of each dilution point is added to 249 μL growth media and 50 μL is added to a well containing cells, providing 10 μM compound for the maximum concentration point. The cells are incubated for 3 days at 37° C. in 5% CO2. For SKNSH cells, a 0.75 μL aliquot of appropriate dilution in DMSO is added to 150 μL of cells. On day 5, ATPlite 1 step Luminescence Assay System (Perkin Elmer #6016739) is brought to room temperature along with the cell cultures. ATPlite is added to each well as follows: • BaF3: 25 μL per well. • MV-4-11: 40 μL per well. • SKNSH: 20 μL per well. The cells are incubated at room temperature for 10 minutes, then luminescence is read on Safire reader. The measured luminescence correlates directly with cell number, such that the reading as a function of compound concentration is used to determine the IC50 value.
It is understood that the results of these assays may vary as assay conditions are varied. Inhibition levels determined under the conditions described herein represent a relative activity for the compounds tested under the specific conditions employed. The cell based assays are likely to show variability due to the complexity of the system and the sensitivity thereof to any changes in the assay conditions. […] Results for compounds that are tested and show substantially no inhibition below the highest tested concentration are represented as “-” in the tables below. In some instances, the compounds were not tested in all of the assays, or assay results were not valid, as indicated by NA in the tables below.

SKNSH cells = assay: SKNSH (human neuroblastoma) cell proliferation assay (ATPlite); format: cell-based; settings: SK-N-SH, read-out: Inhibition of Cell Proliferation IC50, SKNSH
Method in brief: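 Fms/Trk inhibitor efficacy was tested by proliferation of SKNSH neuroblastoma cells. After 3 days of compound exposure at 37° C. in 5% CO2, 20 μL per well of ATPlite 1 step reagent was added, plates sat 10 minutes at room temperature, and luminescence, proportional to cell number, was read on a Safire reader to derive IC50.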

Row | Compound | turbidity threshold (L, M, H) 1.4 [1] | turbidity threshold (L, M, H) 4.5 [1] | turbidity threshold (L, M, H) 6.8 [1] | turbidity threshold (L, M, H) 7.4 [1] | pIC50 (MV-4-11 cells) | pIC50 (SKNSH cells)
1 | FC1(F)CCC(Nc2ncc(Cc3c[nH]c4ncc(Cl)cc34)cn2)CC1 [Compound P-3004] | H (high solubility if the threshold concentration is >250 μm) | L (low solubility if the threshold concentration is <31.3 μM) | L (low solubility if the threshold concentration is <31.3 μM) | L (low solubility if the threshold concentration is <31.3 μM) | > 5.00 | –
2 | Cc1cnc2[nH]cc(Cc3cnc(Nc4ccc(C(F)(F)F)nc4)nc3)c2c1 [Compound P-3018, [5-(5-Methyl-1H-pyrrolo[2,3-b]pyridin-3-ylmethyl)-pyrimidin-2-yl]-(6-trifluoromethyl-pyridin-3-yl)-amine] | H (high solubility if the threshold concentration is >250 μm) | M (moderate solubility if the threshold concentration is 31.3 μM to 250 μM) | M (moderate solubility if the threshold concentration is 31.3 μM to 250 μM) | M (moderate solubility if the threshold concentration is 31.3 μM to 250 μM) | > 8.00 | –
3 | COc1ccc(Nc2ccc(Cc3c[nH]c4ncc(C)cc34)c(F)n2)cn1 [Compound P-3019, [6-fluoro-5-(5-methyl-1H-pyrrolo[2,3-b]pyridin-3-ylmethyl)-pyridin-2-yl]-(6-methoxy-pyridin-3-yl)-amine] | H (high solubility if the threshold concentration is >250 μm) | L (low solubility if the threshold concentration is <31.3 μM) | L (low solubility if the threshold concentration is <31.3 μM) | L (low solubility if the threshold concentration is <31.3 μM) | > 6.00 | > 5.00
4 | COc1ccc(Nc2ncc(Cc3c[nH]c4ncc(C)cc34)cn2)cn1 [Compound P-3020, (6-Methoxy-pyridin-3-yl)-[5-(5-methyl-1H-pyrrolo[2,3-b]pyridin-3-ylmethyl)-pyrimidin-2-yl]-amine] | – | – | – | – | > 7.00 | > 6.00
5 | CCOc1ccc(Nc2ncc(Cc3c[nH]c4ncc(C)cc34)cn2)cn1 [Compound P-3027, (6-Ethoxy-pyridin-3-yl)-[5-(5-methyl-1H-pyrrolo[2,3-b]pyridin-3-ylmethyl)-pyrimidin-2-yl]-amine] | – | – | – | – | > 8.00 | < 4.60
6 | CCn1ccc(Nc2ncc(Cc3c[nH]c4ncc(C)cc34)cn2)n1 [Compound P-3035, (1-Ethyl-1H-pyrazol-3-yl)-[5-(5-methyl-1H-pyrrolo[2,3-b]pyridin-3-ylmethyl)-pyrimidin-2-yl]-amine] | – | – | – | – | > 6.00 | > 6.00
7 | CCn1cc(Nc2ncc(Cc3c[nH]c4ncc(C)cc34)cn2)cn1 [Compound P-3036, (1-Ethyl-1H-pyrazol-4-yl)-[5-(5-methyl-1H-pyrrolo[2,3-b]pyridin-3-ylmethyl)-pyrimidin-2-yl]-amine] | – | – | – | – | > 7.00 | > 4.70
8 | Cc1cnc2[nH]cc(Cc3cnc(Nc4cc(OC(C)C)n[nH]4)nc3)c2c1 [Compound P-3038, (5-Isopropoxy-2H-pyrazol-3-yl)-[5-(5-methyl-1H-pyrrolo[2,3-b]pyridin-3-ylmethyl)-pyrimidin-2-yl]-amine] | – | – | – | – | < 6.00 | < 4.60
9 | CCOc1ccc(Nc2ccc(Cc3c[nH]c4ncc(C)cc34)c(F)n2)cn1 [Compound P-3039, (6-ethoxy-pyridin-3-yl)-[6-fluoro-5-(5-methyl-1H-pyrrolo[2,3-b]pyridin-3-ylmethyl)-pyridin-2-yl]-amine] | H (high solubility if the threshold concentration is >250 μm) | M (moderate solubility if the threshold concentration is 31.3 μM to 250 μM) | M (moderate solubility if the threshold concentration is 31.3 μM to 250 μM) | M (moderate solubility if the threshold concentration is 31.3 μM to 250 μM) | > 6.00 | < 6.00
10 | COc1ccc(Nc2ccc(Cc3c[nH]c4ncnc(OC)c34)c(F)n2)cn1 [Compound P-4001, [6-Fluoro-5-(4-methoxy-7H-pyrrolo[2,3-d]pyrimidin-5-ylmethyl)-pyridin-2-yl]-(6-methoxy-pyridin-3-yl)-amine] | M (moderate solubility if the threshold concentration is 31.3 μM to 250 μM) | M (moderate solubility if the threshold concentration is 31.3 μM to 250 μM) | M (moderate solubility if the threshold concentration is 31.3 μM to 250 μM) | M (moderate solubility if the threshold concentration is 31.3 μM to 250 μM) | > 6.00 | > 6.00
11 | COc1ncnc2[nH]cc(Cc3ccc(Nc4ccc(Cl)nc4)nc3F)c12 [Compound P-4003, (6-Chloro-pyridin-3-yl)-[6-fluoro-5-(4-methoxy-7H-pyrrolo[2,3-d]pyrimidin-5-ylmethyl)-pyridin-2-yl]-amine] | M (moderate solubility if the threshold concentration is 31.3 μM to 250 μM) | M (moderate solubility if the threshold concentration is 31.3 μM to 250 μM) | M (moderate solubility if the threshold concentration is 31.3 μM to 250 μM) | M (moderate solubility if the threshold concentration is 31.3 μM to 250 μM) | > 6.00 | < 6.00
12 | COc1ncnc2[nH]cc(Cc3ccc(Nc4ccc(C5CC5)nc4)nc3F)c12 [Compound P-4004, (6-Cyclopropyl-pyridin-3-yl)-[6-fluoro-5-(4-methoxy-7H-pyrrolo[2,3-d]pyrimidin-5-ylmethyl)-pyridin-2-yl]-amine] | M (moderate solubility if the threshold concentration is 31.3 μM to 250 μM) | M (moderate solubility if the threshold concentration is 31.3 μM to 250 μM) | L (low solubility if the threshold concentration is <31.3 μM) | L (low solubility if the threshold concentration is <31.3 μM) | > 6.00 | > 6.00
